Laboratory results: publication PMC12000251, “Evaluation of the Anti-Inflammatory Effects of Novel Fatty Acid-Binding Protein 4 Inhibitors in Microglia” (Journal of Neuroimmune Pharmacology, 2025)
Read-outs that look alike come from different tables or passages of the source.

Assays:
LPS-activated BV-2 cells [1] = tested on: LPS-activated BV-2 cells; design: method as in Kagawa et al. [2023]; conditions: 50 µM; ref Kagawa et al. [2023]; cited from earlier work
FABP4 = biological target: FABP4; design: method as in Floresta et al. [2017]; conditions: ref Floresta et al. [2017]; cited from earlier work
BV-2 cells [2] = tested on: BV-2 cells; design: method as in Kagawa et al. [2023]; conditions: 50 µM; ref Kagawa et al. [2023]; cited from earlier work
LPS-activated BV-2 cells [3] = tested on: LPS-activated BV-2 cells; design: method as in Kagawa et al. [2023]; conditions: five-fold higher concentration than 10 µM; ref Kagawa et al. [2023]; cited from earlier work
[4] = design: method as in PubChem [2021]; conditions: ref PubChem [2021]; cited from earlier work
LPS-activated BV-2 cells [5] = tested on: LPS-activated BV-2 cells; design: method as in Duffy et al. [2017]; conditions: 50 µM; ref Duffy et al. [2017]; cited from earlier work
[6] = 1D 1H NMR aqueous solubility in phosphate buffer; format: physicochemical; conditions: kinetic from dmso stock, phosphate buffer pH 7.4 in D2O, 0.1% d6-DMSO, 25 °C, range 3.125–100 µM, read-out: Soluble in phosphate buffer up to (concentration)
Procedure: 1D ^1H NMR was employed to determine the solubility limits of the four MFP compounds and BMS309403 in phosphate buffer. This method has been commonly used to determine compound solubility in the drug discovery setting (Devine et al. [2014]; Lee et al. [2015b]; Lin et al. [2009]). A 100 mM of stock solution of each compound was first prepared in d6-DMSO. These stock solutions were then added into phosphate buffer (50 mM sodium phosphate, 25 mM NaCl, 100 µM of DSS, pH 7.4 in D2O) to achieve a final d6-DMSO concentration of 0.1% (v/v) which is equivalent to the DMSO concentration present in BV-2 cell culture experiments. All samples were inspected to note whether visible precipitates were formed. ^1H NMR spectra for all of the samples were acquired using Bruker Avance III 600 MHz spectrometer at 25 °C. Experimental data were acquired using a relaxation delay of 5 s with 128 scans, and water suppression using an excitation sculpting pulse scheme. Mestrelab Research 13.0 software was used to integrate the proton resonances of the compounds. A well-resolved peak (i.e. no overlaps with any other peaks) in the spectrum of each compound was chosen for integration, relative to the DSS peak (at 0 ppm). […] In addition, the chemical shifts of the resonances in the 1D ^1H NMR spectra were monitored.

[7] = biological target: T1, Recombinantly-expressed human FABP4 (Homo sapiens, UniProt P15090); test: Isothermal titration calorimetry (ITC) binding affinity to FABP4; conditions: one-site binding model
T1 construct: made in house
T1 sequence (P15090 whole entry): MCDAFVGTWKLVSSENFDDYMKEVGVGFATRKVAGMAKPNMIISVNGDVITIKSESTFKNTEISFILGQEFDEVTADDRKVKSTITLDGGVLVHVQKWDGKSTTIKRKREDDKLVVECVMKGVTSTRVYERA
Procedure: A prior fragment screen identified a series of bi-aryl sulfonamides that bound to FABP4. Analogues of this chemical sulfonamide scaffold were then purchased, which led to the identification of the compounds used in this study (MFP-0011462, MFP-0012314, MFP-0012318, and MFP-0012328). Their predicted LogP and tPSA values were calculated in Vortex v2020.1.117658-s (Dotmatics, Boston, MA). The binding affinity of these four compounds was characterised by isothermal titration calorimetry (ITC). ITC was carried out using an iTC200 microcalorimeter (MicroCal, United Kingdom) with a coin shaped sample cell (201.4 μL) with stirring at 1000 rpm at 25°C. Titrations were performed in an ITC buffer (50 mM sodium phosphate, 50 mM NaCl, pH 7.4 with 2% DMSO). Compounds were diluted from concentrated stocks in ITC buffer and loaded into the titration syringe at a concentration of 1 mM, with a final DMSO concentration of 2% (v/v). Recombinantly-expressed human FABP4 was prepared as described previously (Lee et al. [2015a]) in an identical buffer at a protein concentration of 80 μM and placed in the sample cell. A thermal equilibration step at 25°C was followed by an initial 180 s delay step and subsequently an initial 0.2 μL injection. 16 serial injections of the 1 mM compound solution (2 μL each) were made at intervals of 220 s with continuous stirring of the solution in the sample cell. The iTC200 control software was used to operate and acquire raw data as power (microcalories/sec) vs time (min). The data were processed using the Origin 7.0 software (MicroCal) and the binding affinity (KD) was calculated by fitting the data to a one-site binding model.

LPS-activated BV-2 cells [8] = test: Intracellular ROS (DCF-DA) in LPS-activated BV-2 cells; format: cell-based, mouse; conditions: 2 h pre-treatment then co-treatment with 1 µg/mL LPS 24 h, vs LPS-only
Procedure: BV-2 cells were cultured in DMEM/F-12 media supplemented with 10% (v/v) FBS and 1% (v/v) penicillin/streptomycin, and kept at 37 °C in a humidified incubator ([…], 5% CO2) for all studies. Cells with 80% confluency were used for experiments. […] In some experiments (detailed in Results), BV-2 cells were exposed to MFP compounds for 2 h before a 24 h exposure to LPS and MFP compounds, and in some studies, in the presence of FABP4 siRNA using a 24 h treatment that we have previously employed (Low et al. [2021]). In brief, BV-2 cells were washed once 4 h post-seeding with blank DMEM/F-12 media. siRNA complexes (containing FABP4 siRNA, target sequence 5’-[…]-3’ or AllStar Negative Control siRNA, target sequence proprietary) were added dropwise onto the cells. siRNA complexes were prepared by mixing siRNA and HiPerfect transfection reagent together in FBS-free DMEM/F12 media and incubating for 15 min to allow the siRNA complexes to form. The cells were incubated with the siRNA complex for 5 min, after which, DMEM/F12 media containing FBS was added into each well to dilute the siRNA complexes to 5 nM.
Intracellular ROS in BV-2 cells, following treatment with MFP compounds and LPS, was detected using the widely-used membrane permeable probe, DCF-DA. Post treatment, BV-2 cells were rinsed once with warm HBSS prior to being incubated with 40 µM of DCF-DA for 30 min at 37°C, 5% CO2. The wells were then rinsed again with HBSS before being read on a Perkin-Elmer Enspire plate reader (λex: 488 nm, λem: 535 nm) as we have reported previously (Kagawa et al. [2023]).

LPS-activated BV-2 cells [9] = test: Extracellular nitrite (Griess assay) from LPS-activated BV-2 cells; format: cell-based, mouse; conditions: 50 µM, 1 µg/mL LPS 24 h
Procedure: BV-2 cells were cultured in DMEM/F-12 media supplemented with 10% (v/v) FBS and 1% (v/v) penicillin/streptomycin, and kept at 37 °C in a humidified incubator ([…], 5% CO2) for all studies. Cells with 80% confluency were used for experiments. At 24 h post-seeding, BV-2 cells were treated with either of the MFP compounds (at concentrations detailed below) or vehicle (0.1% (v/v) DMSO) and 1 µg/mL LPS for a period of 24 h. In some experiments (detailed in Results), BV-2 cells were exposed to MFP compounds for 2 h before a 24 h exposure to LPS and MFP compounds, and in some studies, in the presence of FABP4 siRNA using a 24 h treatment that we have previously employed (Low et al. [2021]). […]
For measurement of extracellular nitrite concentrations, the Griess assay was performed as per the manufacturer’s protocol (Molecular Probes, Eugene, OR) with minor changes. […] The absorbance of the media samples was measured on a Perkin-Elmer Enspire plate reader at 548 nm, with nitrite concentrations in media samples obtained by back calculating sample absorbance values back to a standard curve prepared through serial dilution of NaNO2 prepared in media.

BV-2 cells [10] = test: MTT assay of BV-2 cell viability; format: cell-based, mouse; conditions: 24 h; for fold reduction in cell viability: 75 µM and 100 µM of MFP-0012328, 100 µM of the other MFP compounds, range over the compounds; for BV-2 cell viability relative to vehicle control: 2–50 µM, MTT
Procedure: BV-2 cells were cultured in DMEM/F-12 media supplemented with 10% (v/v) FBS and 1% (v/v) penicillin/streptomycin, and kept at 37 °C in a humidified incubator ([…], 5% CO2) for all studies. Cells with 80% confluency were used for experiments. At 24 h post-seeding, BV-2 cells were treated with either of the MFP compounds (at concentrations detailed below) or vehicle (0.1% (v/v) DMSO) and 1 µg/mL LPS for a period of 24 h. In some experiments (detailed in Results), BV-2 cells were exposed to MFP compounds for 2 h before a 24 h exposure to LPS and MFP compounds, and in some studies, in the presence of FABP4 siRNA using a 24 h treatment that we have previously employed (Low et al. [2021]). In brief, BV-2 cells were washed once 4 h post-seeding with blank DMEM/F-12 media. siRNA complexes (containing FABP4 siRNA, target sequence 5’-[…]-3’ or AllStar Negative Control siRNA, target sequence proprietary) were added dropwise onto the cells. siRNA complexes were prepared by mixing siRNA and HiPerfect transfection reagent together in FBS-free DMEM/F12 media and incubating for 15 min to allow the siRNA complexes to form. The cells were incubated with the siRNA complex for 5 min, after which, DMEM/F12 media containing FBS was added into each well to dilute the siRNA complexes to 5 nM.
To determine the most appropriate and tolerable concentration of MFP compounds in BV-2 cells, an MTT assay was performed. Following treatment with increasing concentrations of MFP compounds for 24 h, BV-2 cells were rinsed once with PBS prior to being incubated with 0.45 mg/mL MTT reagent for 4 h in a 37 °C, 5% CO2 incubator. After that, the MTT reagent was removed and 150 µL of DMSO was added into all wells for 30 min. The plate was then immediately read on a Perkin-Elmer Enspire fluorescence plate reader (Boston, MA) at 540 nm. Background subtraction was performed before the percentage cell viability was calculated and expressed as a ratio of mean absorbance of MFP-treated cells over mean absorbance of vehicle-treated cells.

[11] = read-out: KD (ITC titration of FABP4, Figure S1)

| solubility [6] [µM] | Kd [7, 11] [nM] | Kd ([7]; 25°C, pH 7.4, 2% DMSO, read-out: KD against FABP4) [nM] | Compound | reduction in ROS levels (LPS-activated BV-2 cells [1]) [%] | Ki (FABP4) [nM] | toxicity to BV-2 cells (BV-2 cells [2]) | reduction in LPS-mediated TNF-α release (LPS-activated BV-2 cells [3]) [%] | LogP [4] | reduction in nitrite production (LPS-activated BV-2 cells [5]) [%] | % reduction in intracellular ROS production (mean ± SEM) (LPS-activated BV-2 cells [8]; 10 µM) | % reduction in intracellular ROS production (mean ± SEM) (LPS-activated BV-2 cells [8]; 50 µM) | attenuation of LPS-mediated release of nitrite (LPS-activated BV-2 cells [9]) [%] | fold reduction in cell viability (BV-2 cells [10]) | BV-2 cell viability relative to vehicle control (BV-2 cells [10]) |
| --- | --- | --- | --- | --- | --- | --- | --- | --- | --- | --- | --- | --- | --- | --- |
| ≥ 100 | – | – | CCc1c(-c2ccccc2)c(-c2ccccc2)nn1-c1ccccc1-c1cccc(OCC(=O)O)c1 [BMS309403, 2-((2'-(5-Ethyl-3,4-diphenyl-1H-pyrazol-1-yl)-[1,1'-biphenyl]-3-yl)oxy)acetic acid] | 36.0 | < 2 | does not exhibit toxicity | 29.0 | 7.2 | 26.8 | – | – | – | – | – |
| – | 694 | – | COc1cc(S(=O)(=O)Nc2cccc(C(=O)O)c2)ccc1Cl [MFP-0011462] | – | – | – | – | – | – | 49 ± 0.04 (****p < 0.0001) % | 46 ± 0.08 (***p < 0.001) % | 12.2 | 0.17–0.27 fold | no significant differences |
| – | 885 | – | COc1ccc(S(=O)(=O)Nc2cccc(C(=O)O)c2)cc1Cl [MFP-0012314] | – | – | – | – | – | – | 40 ± 0.09 (**p < 0.01) % | 42 ± 0.07 (***p < 0.001) % | – | 0.17–0.27 fold | no significant differences |
| – | – | > 100000 | CNC(=O)c1ccc(S(=O)(=O)Nc2cccc(C(=O)O)c2)cc1 [MFP-0012318] | – | – | – | – | – | – | – | 54 ± 0.09 (****p < 0.0001) % | – | 0.17–0.27 fold | no significant differences |
